Converted amounts (≈) assume the structure as drawn.
conditions: buffer; pH 7.4; 200.0 µM

SMILES	solubility kinetic
CC(NS(=O)(=O)/C=C/c1ccccc1)C(=O)O (configuration not stated)	34.2 µg/mL (≈ 134 µM)
Cc1ccc(N(CC(=O)NC2CCCC2)C(=O)c2ccc(C)s2)cc1	49.2 µg/mL (≈ 138 µM)
O=C(O)C1CCC(CNCc2ccncc2)CC1 (configuration not stated)	36.7 µg/mL (≈ 148 µM)
COc1ccc2cc(C(=O)N3CCN(C)CC3)[nH]c2c1	> 41 µg/mL
CN(C)CCCNc1c2ccccc2nc2ccccc12	> 41.9 µg/mL
O=C(O)c1cn2c3c(ccc(Cl)c3c1=O)OCC2	> 39.8 µg/mL
CCN1CCN(c2ccc(S(=O)(=O)N3CCCC3)cn2)CC1	34.6 µg/mL (≈ 107 µM)
Cc1ccc(C(=O)NC2CCCCNC2=O)cc1C (configuration not stated)	> 39.1 µg/mL
OCCNC(=S)NCc1ccccc1	31.5 µg/mL (≈ 150 µM)
Cc1ccc(C)c(SCC(=O)NC2CCS(=O)(=O)C2)c1 (configuration not stated)	> 47 µg/mL
Cl.OC(CN1CCOCC1)Cn1c2c(c3ccccc31)CCCC2 (configuration not stated)	51.3 µg/mL
CCCn1c(N)c(CC)c(=O)[nH]c1=O	> 29.6 µg/mL
COc1ccc(-c2cc(-c3ccccc3)nc(Cl)n2)cc1OC	< 0.3 µg/mL
COc1ccc(Cl)cc1NC(=O)NCc1cccnc1	> 43.8 µg/mL
CC(C)c1ccc(C(N)=S)cc1	25.3 µg/mL (≈ 141 µM)
Cc1cc(C)cc(C(=O)NCCCN2CCOCC2)c1	> 41.5 µg/mL
COc1ccc(CN2C(=O)c3cccc4cccc(c34)C2=O)cc1	0.9 µg/mL (≈ 2.84 µM)
C=CCN1C(=O)C(CC(=O)NCC)SC1=Nc1ccccc1CC (configuration not stated)	44.3 µg/mL (≈ 128 µM)
Cc1noc(C)c1C(=O)OCC(=O)Nc1ncc(C(F)(F)F)cc1Cl	16.8 µg/mL (≈ 44.5 µM)
Cc1cc(NC(=O)CSc2ccccn2)no1	> 37.4 µg/mL
Cc1ccc(C(=O)NCC(=O)N2CCN(c3cccc(Cl)c3)CC2)s1	2.8 µg/mL (≈ 7.41 µM)
Cn1c(/C=C/c2ccccc2)nc2ccccc2c1=O	2.3 µg/mL (≈ 8.77 µM)

SMILES	solubility kinetic
COc1ccc(NC(=O)C(=S)NC2CCCCC2)cc1	< 0.3 µg/mL
CCCN1CCC(NC(=O)C2CC=CCC2C(=O)O)CC1 (configuration not stated)	> 44.2 µg/mL
COc1ccccc1C(=O)N/C(=N/c1nc(C)cc(C)n1)Nc1ccccc1	1.1 µg/mL (≈ 2.93 µM)
CCC1CN(C(=O)NCc2ccccc2)c2ccccc2O1 (configuration not stated)	43.2 µg/mL (≈ 146 µM)
O=C(NCCCN1CCCC1=O)Nc1cc(Cl)ccc1Cl	> 49.5 µg/mL
O=C(COC(=O)CCC(=O)c1ccc(F)cc1)NCc1ccc(Cl)cc1	10.6 µg/mL (≈ 28.1 µM)
Cc1ccc(-n2ccnc(SCC(=O)NC3CCCC3)c2=O)cc1Cl	3 µg/mL (≈ 7.94 µM)
CC(=O)N(c1ccccc1C)S(=O)(=O)c1ccc(Cl)cc1	34.3 µg/mL (≈ 106 µM)
CN(Cc1ccccc1)C(=O)C1CCN(S(C)(=O)=O)CC1	> 46.6 µg/mL
CCOc1ccc(N=Cc2ccc3ccccc3c2)cc1	1.5 µg/mL (≈ 5.45 µM)
CSc1ccc(Cl)c(C(=O)NCCCn2ccnc2)c1	> 46.5 µg/mL
O=C(Nc1ccccc1C(F)(F)F)c1ccsc1	> 40.7 µg/mL
Cc1ccc(N=C2C(=O)Nc3ccc(Br)cc32)cc1	1.1 µg/mL (≈ 3.49 µM)
COc1ccc(Cc2cnc(N)s2)cc1	31.8 µg/mL (≈ 144 µM)
C(=C\c1nc(-c2ccncc2)no1)/c1ccccc1	3.4 µg/mL (≈ 13.6 µM)
O=C(O)c1c2c(nc3ccccc13)/C(=C/c1ccc(O)cc1)CCC2	> 49.7 µg/mL
COc1cc(C#N)c(N=C(SCC#N)N2CCOCC2)cc1OC	> 52 µg/mL
CC(CC(=O)NCCc1ccc(S(N)(=O)=O)cc1)c1ccccc1 (configuration not stated)	> 52 µg/mL
Cc1ccc(OCCn2cc(C(=O)O)c3ccccc32)cc1	44.3 µg/mL (≈ 150 µM)
CCc1nccn1S(=O)(=O)c1ccccc1[N+](=O)[O-]	> 42.2 µg/mL
Cc1c(Cl)cccc1NC(=O)CC1Oc2ccccc2NC1=O (configuration not stated)	5.7 µg/mL (≈ 17.2 µM)
Cn1c(=O)[nH]c(=O)c2c1nc1n2CCCN1Cc1ccccc1	8.1 µg/mL (≈ 26 µM)

SMILES	solubility kinetic
COc1cccc(C(=O)Oc2ccc(N3C(=O)CCC3=O)c(C)c2)c1	> 50.9 µg/mL
CCCc1cc(C(=O)Nc2ccc(F)c(Cl)c2)no1	1.5 µg/mL (≈ 5.31 µM)
Cc1cc(S(=O)(=O)Nc2ccc(C(=O)NCC3CCCO3)cc2)ccc1F (configuration not stated)	1 µg/mL (≈ 2.55 µM)
CCOc1ccc(C2C(C#N)=C(N)Oc3cc(C)[nH]c(=O)c32)cc1OC (configuration not stated)	> 53 µg/mL
N#CC(CC(=O)c1ccc(F)cc1)c1ccc2c(c1)OCO2 (configuration not stated)	1.2 µg/mL (≈ 4.04 µM)
O=C1NC2(CCCCCC2)N=C1c1ccc(Br)cc1	0.9 µg/mL (≈ 2.8 µM)
O=c1[nH]cccc1-c1nc2ccccc2n1Cc1ccccc1F	3.9 µg/mL (≈ 12.2 µM)
NC(=O)c1cc(S(=O)(=O)NCc2cccs2)cs1	43.4 µg/mL (≈ 144 µM)
O=C(O)C(Cc1c[nH]c2ccccc12)N1C(=O)C2C3c4ccccc4C(c4ccccc43)[C@@H]2C1=O (some centres not stated)	37.1 µg/mL (≈ 80.2 µM)
OC(CN1CCN(c2ccccc2F)CC1)c1ccc(F)cc1 (configuration not stated)	> 47.8 µg/mL
Cc1ccc(CNC(=O)C2CCC(=O)N2C(C)C)cc1 (configuration not stated)	> 41.2 µg/mL
Cc1cc(N2CCN(c3ncccn3)CC2)nc2c(C)cccc12	0.2 µg/mL (≈ 0.626 µM)
CC(C)N(Cc1ccccc1)C(=O)COC(=O)C1CCCCC1	46.6 µg/mL (≈ 147 µM)
COc1ccccc1OCC(O)CN1CCN(CC(=O)Nc2c(C)cccc2C)CC1.Cl (configuration not stated)	> 75.1 µg/mL
CC1(C(=O)Nc2ccc3c(c2)OCO3)CC1(Cl)Cl (configuration not stated)	> 43.2 µg/mL
CNC(=O)Cn1c(C)cc(=O)c2cccc(C)c21	> 36.6 µg/mL
O=C(Cc1ccc(Br)cc1)N1CCCC1	37.6 µg/mL (≈ 140 µM)
COc1cc2c(cc1OC)CN(Cc1ccccc1)CC2	35.6 µg/mL (≈ 126 µM)
Nc1cc(=O)[nH]c(=O)n1-c1ccc(Cl)cc1	> 35.6 µg/mL
COc1cc2c(cc1OC)CN(C(=O)Cn1ccccc1=O)CC2	> 49.3 µg/mL
COc1ccc(C(=O)Nc2cc(C)nn2-c2ccc(C)cc2)cc1	> 48.2 µg/mL
COCCNC(=O)CN1C2CCC1CC(O)(c1cccnc1)C2 (configuration not stated)	> 47.9 µg/mL

SMILES	solubility kinetic
CSc1ccc(CNCc2ccco2)cc1.Cl	> 40.5 µg/mL
c1ccc(-c2noc(C3CCC3)n2)nc1	20.6 µg/mL (≈ 102 µM)
COc1ccc(OC)c(C(O)c2nc3ccccc3n2C)c1 (configuration not stated)	> 44.8 µg/mL
COc1ccc(O)c(/C=N/c2nc3ccccc3n2C)c1	15 µg/mL (≈ 53.3 µM)
O=C(COC(=O)CCC1CCCC1)Nc1ccc(F)cc1Cl	3.4 µg/mL (≈ 10.4 µM)
COc1ccc(S(=O)(=O)N2CCc3ccccc32)cc1[N+](=O)[O-]	6.4 µg/mL (≈ 19.1 µM)
O=C(O)C1CCN(S(=O)(=O)c2ccc3c(c2)OCCCO3)CC1	> 51.2 µg/mL
Cc1ccc(NC(=O)CC2NCCN(Cc3ccccc3)C2=O)cc1 (configuration not stated)	43.6 µg/mL (≈ 129 µM)
CSc1ccccc1NC(=O)COC(=O)c1ccccc1O	2 µg/mL (≈ 6.3 µM)
COc1ccccc1N1CCN(c2nccc(C)n2)CC1	40.3 µg/mL (≈ 142 µM)
CC(C)CC(=O)Nc1cccc(-c2nc3ncccc3o2)c1	31.8 µg/mL (≈ 108 µM)
NC(=O)COC(=O)c1ccc(S(=O)(=O)NCc2ccco2)cc1	> 50.8 µg/mL
C=CCn1c(SCC(=O)Nc2c(C)n(C)n(-c3ccccc3)c2=O)nnc1-c1cccnc1	> 69.2 µg/mL
NC(=O)C1Cc2ccccc2CN1S(=O)(=O)c1ccc(Cl)s1 (configuration not stated)	> 53.5 µg/mL
O=C(CNC(=O)c1ccc(Br)o1)NC1CCCCC1	> 49.4 µg/mL
CCOc1ccccc1N=Cc1c(O)c2ccccc2oc1=O	< 0.7 µg/mL
O=C(CNC(=O)c1ccc(Cl)cc1)c1ccc(Br)cc1	< 0.8 µg/mL
COc1ccc2nc(SCC(=O)NC3CCCC3)c(C)cc2c1	< 0.4 µg/mL
CCOC(=O)c1c(C)[nH]c(C)c1C(=O)COC(=O)c1cccs1	> 50.3 µg/mL
COc1ccc(NC(=O)C2CC(=O)N=C(N)S2)cc1 (configuration not stated)	> 41.9 µg/mL
Clc1ccc(C2CSc3c4ncnc-4ncn32)cc1 (configuration not stated)	33.9 µg/mL (≈ 117 µM)
